According to patent publication US11299493B2, “Heterocyclic compounds and uses thereof” (NUVATION BIO INC., priority 2017, dated 2022):

What was measured:
[1] = test system: A549 cells; assay: Cytotoxicity assay (resazurin) in A549 cells; format: cell-based; conditions: Homo sapiens, A549, 96 hr, read-out: Cell Viability IC50 A549
Procedure: (§1) Cells were allowed to grow at 37° C. for 24 hr in 5% CO2 environment (culture conditions) in a Nuaire incubator (humidified). Serially diluted test compounds (100 μL) within the desired testing concentration ranges were added to the culture plate were further incubated in culture conditions for 72 hr and 96 hr for A427 and A549 respectively. The experiment was terminated at the designated incubation time by replacing the medium with 100 μL of 1 mM of resazurin (R7017; Sigma) prepared in respective culture medium, and the plates were further incubated in culture conditions for 4-6 hr. Fluorescence was recorded using a multimodal plate reader (Biotek Synergy Neo) at an excitation wavelength of 535 nm and emission wavelength of 590 nm to obtain relative fluorescence units. Data analysis was done by subtracting the background fluorescence (only medium blank) value from each reading and then normalizing with the vehicle control (DMSO treated cells) to obtain percent survival/proliferation. Percent survival was then subtracted by 100 to get the percent inhibition of proliferation which was used to calculate IC50 values.

[2] = biological target: WEE1 kinase enzyme (Homo sapiens (Human), UniProt P30291); assay: WEE1 IC50 determination, LanthaScreen Terbium Labeled TR-FRET kinase assay; format: biochemical; conditions: WEE1 enzyme 1 nM, ATP 10 μM, 1 h
Sequence of WEE1 kinase enzyme (P30291 whole entry): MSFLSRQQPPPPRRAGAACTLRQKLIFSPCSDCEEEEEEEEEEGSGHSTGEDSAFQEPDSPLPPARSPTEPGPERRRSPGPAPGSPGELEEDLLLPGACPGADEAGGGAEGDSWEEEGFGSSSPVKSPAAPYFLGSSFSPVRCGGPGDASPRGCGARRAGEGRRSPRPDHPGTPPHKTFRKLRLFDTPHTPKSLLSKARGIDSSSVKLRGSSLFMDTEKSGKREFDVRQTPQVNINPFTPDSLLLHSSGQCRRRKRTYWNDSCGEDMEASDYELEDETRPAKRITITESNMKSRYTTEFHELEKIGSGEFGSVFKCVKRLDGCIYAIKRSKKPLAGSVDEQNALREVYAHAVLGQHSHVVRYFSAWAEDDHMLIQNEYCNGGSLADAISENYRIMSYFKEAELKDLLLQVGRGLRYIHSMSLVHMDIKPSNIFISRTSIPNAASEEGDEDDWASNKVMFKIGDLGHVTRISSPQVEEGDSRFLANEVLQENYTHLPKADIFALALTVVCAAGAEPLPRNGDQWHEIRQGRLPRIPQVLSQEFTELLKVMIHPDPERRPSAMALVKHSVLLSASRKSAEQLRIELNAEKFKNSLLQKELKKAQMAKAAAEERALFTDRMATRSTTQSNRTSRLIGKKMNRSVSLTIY
Procedure: IC50 values of compounds against WEE1 kinase enzyme were determined by LanthaScreen™ Terbium Labeled TR-FRET assay. […] After 1 h, […] stop solution containing Terbium labeled antibody (4 nM) (#PV3529, Invitrogen, Life Technologies Grand Island, N.Y.) and EDTA (#E5134, Sigma, St-Louis, Mo.) (20 mM) in TR-FRET dilution buffer (#PV3574, Invitrogen, Life Technologies Grand Island, N.Y.) was added. Readings were taken in a Synergy Neo Plate reader (BioTek, Winooski) at single excitation of 340 nm and Dual emission at 495 nm and 520 nm respectively.
The % activity of test samples was calculated as (Sample−Min)*100/(Max−Min). [Max: DMSO control, complete reaction with enzyme & DMSO and Min: No enzyme & DMSO].

[3] = test system: A427 cells; assay: Cytotoxicity assay (resazurin) in A427 cells; format: cell-based; conditions: Homo sapiens, A-427, 72 h, A427, 72 hr, read-out: Cell Viability IC50 A427
Procedure: as §1

[4] = test system: A427 cells; assay: Cell proliferation assay (Cell Titer-Glo) in A427 cells; format: cell-based; conditions: Homo sapiens, A-427, typically 72 h
Procedure: (§2) The effects of test compounds were studied in five cell lines with various histotypes. The cancer cells (Table 4) were harvested during the logarithmic growth period and counted. Adjust cell concentrations to the appropriated number with respective medium, and add 90 μL cell suspensions to 96-well plates. After cells were seeded, the plates were shaken gently to distribute cells evenly and incubated at 37° C., 5% CO2 on day 1.
(§3) Cell viability data were plotted using GraphPad Prism (version 5, GraphPad Software, Inc., San Diego, Calif.). In addition, a nonlinear regression model with a sigmoidal dose response and variable slope within GraphPad Prism was used to calculate the IC50 value of individual test compounds.

[5] = test system: A2780 cells; assay: Cell proliferation assay (Cell Titer-Glo) in A2780 cells; format: cell-based; conditions: Homo sapiens, typically 72 h
Procedure: as §2
Cells were treated with test compounds at 9 concentrations within a desired concentration range (e.g. 1.5 nM-10 μM) on day 2 by series diluting the test compound stock solution (10 mM in DMSO) with culture medium. Cell viability was assessed by Cell Titer-Glo® as recommended by Promega (Cat. No.: G7572, Promega) typically 72 h post-treatment.
as §3

[6] = test system: A427 cells; assay: Activity of compounds in combination with cisplatin in A427 cells (resazurin); format: cell-based; conditions: Homo sapiens, A-427, 24 hr 2.5 μM cisplatin
Procedure: The activity of test compounds in combination with cisplatin in A427 cells was determined. Cells were seeded in a 96 well plate at 2000 cells/well. The next day, cells were treated with 2.5 μM cisplatin or vehicle (1×PBS) and incubated in culture conditions (37° C., 5% CO2) for 24 hr. Following the incubation, culture medium was replaced with medium containing test compound and cisplatin/vehicle, and cells were further incubated in culture conditions for another 72 hr. By this procedure, cisplatin was either continued or discontinued after an initial 24-hr incubation. Addition of test compound was in concentrations needed to obtain an 8-point dose response curve, with concentrations prepared by 3-fold dilution. The assay was terminated upon addition of resazurin, incubation for 4 hr in culture conditions and measurement of fluorescence at excitation and emission wavelengths of 535 and 590 nm, respectively.

[7] = test system: AsPC-1 cells; assay: Synergistic activity with gemcitabine, combination matrix method, AsPC-1 cells; format: cell-based; conditions: fractional effect level of about 0.5, Chou-Talalay
Procedure: (§4) Determination of synergistic activity of compounds in combination with a chemotherapeutic drug on cell viability is determined by a combination matrix method. Chemotherapeutics that may be used in the combination include but are not limited to a platinum-based chemotherapeutic agent, a DNA alkylating agent, a topoisomerase inhibitor, an anthracycline, a histone deacetylase inhibitor, a bromodomain inhibitor, a kinase inhibitor, a mTOR inhibitor, a PARP inhibitor, an ATM inhibitor, an ATR inhibitor, a Wee1 inhibitor, a proteasome inhibitor, and a nucleotide analog or precursor analog. Cancer cell lines that may be used in the assay include but are not limited to lung cancer, leukemia, lymphoma, multiple myeloma, ovarian cancer, breast cancer, pancreatic cancer, stomach cancer, colon cancer, liver cancer, head and neck cancer, kidney cancer, skin cancer and brain cancer cell lines. Cells are seeded in a 96-well plate and incubated at 37° C. in cell culture conditions for 24 hr. […] Measurement of fluorescence at an excitation and emission wavelength of 535 and 590 nm respectively. Synergy is evaluated with the combination index (CI) value using the Chou-Talalay method in which additive effect (CI=1), synergism (CI<1), and antagonism (CI>1) in drug combinations is determined (Chou T C. Cancer Res 2010; 70:440-6.). […]

[8] = test system: A172 cells; assay: Cytotoxicity assay (resazurin) in A172 cells; format: cell-based; conditions: Homo sapiens, A 172, read-out: Cell Viability IC50 A172
Procedure: [The source words this procedure for another cell line and reports this cell line under the same test.] as §1, with “A549 (CCL-185; ATCC) and A427 (HTB-53; ATCC), both lung epithelial cell lines were seeded in their respective medium (DMEM/MEM, 10569044/41090101; Gibco) at a cell count of 1500 cells per 100 μL per well in a 96 well edge plate (167425; ThermoFisher). Cells” for “Cells”, “values. Potency of compounds in other cell lines (As-Pc-1, Panc 10.05, A172) was determined in an analogous manner.” for “values.”

[9] = test system: As-Pc-1 cells; assay: Cytotoxicity assay (resazurin) in As-Pc-1 cells; format: cell-based; conditions: Homo sapiens, ASPC1; As-Pc-1, resazurin; read-out: Cell Viability IC50 As-Pc-1
Procedure: [The source words this procedure for another cell line and reports this cell line under the same test.] as §1, with “A549 (CCL-185; ATCC) and A427 (HTB-53; ATCC), both lung epithelial cell lines were seeded in their respective medium (DMEM/MEM, 10569044/41090101; Gibco) at a cell count of 1500 cells per 100 μL per well in a 96 well edge plate (167425; ThermoFisher). Cells” for “Cells”, “values. Potency of compounds in other cell lines (As-Pc-1, Panc 10.05, A172) was determined in an analogous manner.” for “values.”

[10] = test system: Panc 10.05 cells; assay: Cytotoxicity assay (resazurin) in Panc 10.05 cells; format: cell-based; conditions: Homo sapiens, Panc1005; Panc 10.05, resazurin; read-out: Cell Viability IC50 Panc 10.05
Procedure: [The source words this procedure for another cell line and reports this cell line under the same test.] as §1, with “A549 (CCL-185; ATCC) and A427 (HTB-53; ATCC), both lung epithelial cell lines were seeded in their respective medium (DMEM/MEM, 10569044/41090101; Gibco) at a cell count of 1500 cells per 100 μL per well in a 96 well edge plate (167425; ThermoFisher). Cells” for “Cells”, “values. Potency of compounds in other cell lines (As-Pc-1, Panc 10.05, A172) was determined in an analogous manner.” for “values.”

[11] = test system: Panc 10.05 cells; assay: Synergistic activity with gemcitabine, combination matrix method, Panc 10.05 cells; format: cell-based; conditions: fractional effect level of about 0.5, Chou-Talalay
Procedure: as §4

[12] = then compound + cisplatin 72 hr, read-out: Cell viability IC50 in A427 cells with 2.5 μM cisplatin: 24 hr cisplatin then compound + cisplatin
[13] = then compound alone 72 hr, read-out: Cell viability IC50 in A427 cells with 2.5 μM cisplatin: 24 hr cisplatin then compound

SMILES | IC50 [1] [nM] | IC50 [2] [nM] | IC50 [3] [nM] | IC50 [4] [nM] | IC50 [5] [nM] | IC50 [6, 12] [nM] | IC50 [6, 13] [nM] | combination index with gemcitabine [7] | IC50 [8] [nM] | IC50 [9] [nM] | IC50 [10] [nM] | combination index with gemcitabine [11]
C=CCn1c(=O)c2cnc(Nc3ccc4c(c3)CN(C(=O)CO)CC4)nc2n1-c1cccc(C(C)(C)O)n1 [Example 1.2] | 842 | 4 | 330 | 269 | – | – | – | – | – | – | – | –
C=CCn1c(=O)c2cnc(Nc3ccc4c(c3)CN(C(=O)C(C)(C)O)CC4(C)C)nc2n1-c1cccc(C(C)(C)O)n1 [Example 1.3] | 1220 | < 2 | 620 | 483 | – | – | – | – | – | – | – | –
C=CCn1c(=O)c2cnc(Nc3ccc4c(c3)CN(C(=O)CO)CC4(C)C)nc2n1-c1cccc(C(C)(C)O)n1 [Example 1.6] | 972 | 3.1 | 355 | 277 | – | – | – | – | – | – | – | –
CCn1c(=O)c2cnc(Nc3ccc4c(c3)CNCC4)nc2n1-c1cccc(C(C)(C)O)n1 [Example 1.7] | 660 | 3 | 800 | – | 1100 | – | – | – | – | – | – | –
CCn1c(=O)c2cnc(Nc3ccc4c(c3)CCNC4)nc2n1-c1cccc(C(C)(C)O)n1 [Example 1.12] | 1060 | 4 | 1720 | – | – | 70 | 120 | – | – | – | – | –
CCn1c(=O)c2cnc(Nc3ccc4c(c3)CN(C)CC4(C)C)nc2n1-c1cccc(C(C)(C)O)n1 [Example 1.16] | 1550 | 4.5 | 1420 | – | – | < 14 | 100 | – | – | – | – | –
CC(C)n1c(=O)c2cnc(Nc3ccc4c(c3)CCNC4)nc2n1-c1ccnc(C(C)(C)C)c1 [Example 1.138] | 2420 | 6 | 993 | – | – | – | – | less than 1 | 4090 | 200 | 2820 | less than 1
CC(C)n1c(=O)c2cnc(Nc3ccc4c(c3)CCNC4)nc2n1-c1cccc(C(C)(C)F)n1 [Example 1.140] | – | 5 | 555 | – | – | – | – | – | – | – | 1520 | –
CC(C)(C)c1cccc(-n2c3nc(Nc4ccc5c(c4)CCNC5)ncc3c(=O)n2C2CC2)n1 [Example 1.143] | 2850 | 3 | 470 | – | – | – | – | – | 3620 | 270 | 1850 | –
CC(C)(F)c1cccc(-n2c3nc(Nc4ccc5c(c4)CCNC5)ncc3c(=O)n2C2CC2)n1 [Example 1.146] | 6680 | 9 | 965 | – | – | – | – | – | 6820 | 920 | 5700 | –
CC(C)(C)c1cc(-n2c3nc(Nc4ccc5c(c4)CCNC5(C)C)ncc3c(=O)n2C2CC2)ccn1 [Example 2.182] | 7750 | 62 | 720 | – | – | – | – | – | 10600 | 1740 | 8600 | –
CC(C)n1c(=O)c2cnc(Nc3ccc4c(c3)CCNC4)nc2n1-c1ccnc(C(C)(C)C)n1 [Example 2.183] | 1800 | 4 | 135 | – | – | – | – | – | 1640 | 95 | 805 | –
CC(C)n1c(=O)c2cnc(Nc3ccc4c(c3)CNCC4)nc2n1-c1ccnc(C(C)(C)C)n1 [Example 2.184] | 655 | 2 | 90 | – | – | – | – | – | 985 | 85 | 545 | –
CC(C)n1c(=O)c2cnc(Nc3ccc4c(c3)CCNC4)nc2n1-c1ccn(C2CC2)n1 [Example 2.188] | 910 | 53 | 815 | – | – | – | – | – | 1520 | 965 | 3100 | –
